Test systems include DLD-1 colon; DMS 273 small cell lung; HOP-18 NSCLC; KM20L2 colon; M19-MEL melanoma; MDA-N; P388 leukemia; P388/ADR leukemia; SN12K1 renal; SNB-78 CNS; XF 498 CNS.
Common to all, as to assay: NCI tumour cell line growth inhibition, 48 h

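1) Cells in 96-well plates. 2) Compound, 48 h, 5 concentrations. 3) Linear interpolation between surrounding doses. 4) Unreached endpoint = highest concentration. TGI is the concentration that stops growth completely.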 Bounds are passed on as bounds.

As for `NC(=O)c1[nH]nc(C2OC(CO)C(O)C2O)c1O` (stereo unspecified), the TGI was 447 µM with DLD-1 colon; 210 µM in the assay on DMS 273 small cell lung; 812 µM in the assay with HOP-18 NSCLC; above 5000 µM with KM20L2 colon; above 3890 µM with M19-MEL melanoma; 923 µM in the assay on MDA-N. Further, the TGI in the assay on P388 leukemia was 802 µM; in the assay with P388/ADR leukemia, 241 µM; in the assay with SN12K1 renal, 663 µM; in the assay on SNB-78 CNS it was 2820 µM; in the assay on XF 498 CNS, 247 µM.

Values taken from PubChem BioAssay (NCI).
